The test system of data set [1] is Hepatotoxicity.
Data set [2] deals with Hepatotoxicity. The source holds these as a separate data set.
For data set [3], the system named is Hepatotoxicity. This is another data set of the same source.
The subject of data set [4] is Hepatotoxicity. This is another data set of the same source.
In data set [5] the test system is Hepatotoxicity. The source holds these as a separate data set.
Data set [6] concerns Hepatotoxicity. The source holds these as a separate data set.
Data set [7] concerns Hepatotoxicity. The source holds these as a separate data set.
The test system of data set [8] is Hepatotoxicity. The source holds these as a separate data set.
Data set [9] concerns Hepatotoxicity. This is another data set of the same source.
For data set [10], the system named is Hepatotoxicity. The source holds these as a separate data set.
Data set [11] relates to Hepatotoxicity. The source holds these as a separate data set.
Data set [12] relates to Hepatotoxicity. This is another data set of the same source.
Data set [13] deals with Hepatotoxicity. The source holds these as a separate data set.
Data set [14] concerns Hepatotoxicity. This is another data set of the same source.
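Throughout, for HepSE Combined Scores: combined hepatic side effect score as listed in the training data of the Drug Induced Liver Injury Prediction System (DILIps).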
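Throughout, for HepSE bilirubinemia: bilirubinemia hepatic side effect score drawn from the DILIps training data, a prediction system for drug-induced liver injury; call rule not given here.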
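Throughout, for HepSE cholecystitis: Cholecystitis-related hepatic side effect score drawn from the DILIps (drug-induced liver injury prediction) training data set; call rule not given here.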
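Throughout, for HepSE cholelithiasis: hepatic side effect score for cholelithiasis, drawn from the DILIps training data for predicting drug-induced liver injury; call rule not given here.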
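Throughout, for HepSE cirrhosis: cirrhosis hepatic side effect score taken from the DILIps (drug-induced liver injury prediction) training set; call rule not given here.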
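Throughout, for HepSE elevated liver function tests: hepatic side effect score for raised liver function tests, as recorded in the DILIps training set used for predicting drug-induced liver injury.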
Throughout, for HepSE hepatic failure: call rule not given here.
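Throughout, for HepSE hepatic necrosis: score of hepatic side effects for hepatic necrosis, drawn from the training data of DILIps, a prediction system for drug-induced liver injury; call rule not given here.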
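Throughout, for HepSE hepatitis: Hepatitis-related hepatic side effect score taken from the training data of DILIps, a prediction system for drug-induced liver injury; call rule not given here.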
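Throughout, for HepSE hepatomegaly: hepatic side effect score for hepatomegaly, taken from the training set of the DILIps drug-induced liver injury prediction system; call rule not given here.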
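Throughout, for HepSE jaundice: Jaundice-related hepatic side-effect score drawn from the training data of the DILIps (drug-induced liver injury prediction system); call rule not given here.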
Throughout, for HepSE liver disease: call rule not given here.
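Throughout, for HepSE liver fatty: hepatic side effect score for fatty liver, taken from the DILIps training set for predicting drug-induced liver injury; call rule not given here.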
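Throughout, for HepSE liver function tests abnormal: hepatic side effect score taken from the DILIps (drug-induced liver injury prediction system) training data, here covering abnormal liver function test findings.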

Regarding `II` [IODINE], the “HepSE_elevated liver function tests” value in [1] is 0. The molecule also gave a HepSE_jaundice in [2] of 0. Further, the HepSE_hepatitis in [3] was 1. Moreover, in data set [4], the HepSE_liver disease was determined as 0. For the same molecule, the HepSE_cholecystitis in data set [5] is given as 0. The molecule further came in with a HepSE_hepatic failure in data set [6] of 0. Besides, the “HepSE_Combined Scores” value in data set [7] stood at 1. In addition, the HepSE_hepatic necrosis in [8] was 0. This molecule gave a HepSE_cirrhosis in [9] of 0. The molecule also registered a HepSE_liver fatty in [10] of 0. Also, the HepSE_cholelithiasis in data set [11] is recorded as 0. In [12], this molecule had a HepSE_hepatomegaly of 0. Moreover, the “HepSE_liver function tests abnormal” value in data set [13] was 0. In data set [14], this molecule had a HepSE_bilirubinemia of 0.

As for `Clc1ccc(COC(Cn2ccnc2)c2ccc(Cl)cc2Cl)cc1` (stereo not drawn) [ECONAZOLE], the “HepSE_elevated liver function tests” value in data set [1] is recorded as 0. The molecule also yielded a HepSE_jaundice in [2] of 0. Also, in [3], the HepSE_hepatitis stood at 0. In addition, the HepSE_liver disease in data set [4] is recorded as 0. The same molecule came in with a HepSE_cholecystitis in data set [5] of 0. The molecule also returned a HepSE_hepatic failure in data set [6] of 0. The “HepSE_Combined Scores” value in data set [7] was 0. This molecule returned a HepSE_hepatic necrosis in data set [8] of 0. For the same molecule, the HepSE_cirrhosis in data set [9] is listed as 0. In addition, in data set [10], the HepSE_liver fatty is reported as 0. This molecule also yielded a HepSE_cholelithiasis in data set [11] of 0. The molecule also came in with a HepSE_hepatomegaly in data set [12] of 0. Further, the “HepSE_liver function tests abnormal” value in data set [13] came out at 0. This molecule also had a HepSE_bilirubinemia in data set [14] of 0.

For the molecule `Nc1nc(F)nc2c1ncn2[C@@H]1O[C@H](CO)[C@@H](O)[C@@H]1O` [FLUDARABINE], in [1], the “HepSE_elevated liver function tests” value was found to be 0. The molecule also registered a HepSE_jaundice in [2] of 0. Further, the HepSE_hepatitis in data set [3] is 0. Besides, the HepSE_liver disease in data set [4] turned out to be 0. Moreover, in data set [5], the HepSE_cholecystitis worked out at 0. In data set [6], this molecule gave a HepSE_hepatic failure of 1. In addition, the “HepSE_Combined Scores” value in [7] turned out to be 2. This molecule also returned a HepSE_hepatic necrosis in [8] of 0. Besides, the HepSE_cirrhosis in [9] came to 0. The molecule also displayed a HepSE_liver fatty in data set [10] of 0. The same molecule registered a HepSE_cholelithiasis in data set [11] of 1. Further, the HepSE_hepatomegaly in [12] was 0. For the same molecule, the “HepSE_liver function tests abnormal” value in data set [13] worked out at 0. In data set [14], the HepSE_bilirubinemia is 0.

In the case of `CC(C)[C@H](N)C(=O)OCC(CO)OCn1cnc2c(=O)nc(N)[nH]c21` (stereo partly drawn) [VALGANCICLOVIR], in data set [1], the “HepSE_elevated liver function tests” value was 0. For the same molecule, the HepSE_jaundice in [2] was 1. Further, the HepSE_hepatitis in [3] is 1. The same molecule yielded a HepSE_liver disease in data set [4] of 0. Also, in [5], the HepSE_cholecystitis turned out to be 0. This molecule also displayed a HepSE_hepatic failure in [6] of 0. In addition, the “HepSE_Combined Scores” value in data set [7] turned out to be 2. For the same molecule, in data set [8], the HepSE_hepatic necrosis came to 0. In [9], this molecule came in with a HepSE_cirrhosis of 0. Moreover, in data set [10], the HepSE_liver fatty was determined as 0. Besides, the HepSE_cholelithiasis in data set [11] is listed as 0. Also, in [12], the HepSE_hepatomegaly stood at 0. In addition, the “HepSE_liver function tests abnormal” value in data set [13] is recorded as 0. In addition, the HepSE_bilirubinemia in [14] is reported as 0.

With `OC(CNCC(O)C1CCc2cc(F)ccc2O1)C1CCc2cc(F)ccc2O1` (stereo not drawn) [NEBIVOLOL], the “HepSE_elevated liver function tests” value in data set [1] turned out to be 0. This molecule also gave a HepSE_jaundice in [2] of 0. The HepSE_hepatitis in data set [3] is 0. Moreover, in [4], the HepSE_liver disease turned out to be 0. Moreover, the HepSE_cholecystitis in data set [5] amounted to 0. The molecule also had a HepSE_hepatic failure in [6] of 0. In addition, in data set [7], the “HepSE_Combined Scores” value was 0. The HepSE_hepatic necrosis in data set [8] came out at 0. In data set [9], this molecule came in with a HepSE_cirrhosis of 0. Moreover, the HepSE_liver fatty in data set [10] came out at 0. Besides, the HepSE_cholelithiasis in data set [11] is on record as 0. This molecule came in with a HepSE_hepatomegaly in [12] of 0. Further, the “HepSE_liver function tests abnormal” value in [13] stood at 0. In addition, the HepSE_bilirubinemia in data set [14] is 0.

`Brc1c(NC2=NCCN2)ccc2nccnc12` [BRIMONIDINE]: in data set [1] (Liver), the “HepSE_elevated liver function tests” value was 0. This molecule displayed a HepSE_jaundice in data set [2] (Liver) of 0. The same molecule displayed a HepSE_hepatitis in data set [3] (Liver) of 0. The HepSE_liver disease in [4] (Liver) came to 0. Moreover, in data set [5] (Liver), the HepSE_cholecystitis was 0. Besides, the HepSE_hepatic failure in data set [6] (Liver) came out at 0. Moreover, the “HepSE_Combined Scores” value in data set [7] (Liver) turned out to be 0. The molecule further had a HepSE_hepatic necrosis in [8] (Liver) of 0. Also, the HepSE_cirrhosis in data set [9] (Liver) stood at 0. Also, the HepSE_liver fatty in [10] (Liver) is listed as 0. In addition, the HepSE_cholelithiasis in data set [11] (Liver) is reported as 0. The HepSE_hepatomegaly in [12] (Liver) amounted to 0. The “HepSE_liver function tests abnormal” value in data set [13] (Liver) came to 0. The molecule also had a HepSE_bilirubinemia in data set [14] (Liver) of 0.

On to `CCCCc1ncc(/C=C(\Cc2cccs2)C(=O)O)n1Cc1ccc(C(=O)O)cc1` [EPROSARTAN], for which the “HepSE_elevated liver function tests” value in data set [1] stood at 0. In data set [2], this molecule showed a HepSE_jaundice of 0. For the same molecule, the HepSE_hepatitis in data set [3] came out at 0. The HepSE_liver disease in [4] was determined as 0. The molecule also gave a HepSE_cholecystitis in data set [5] of 0. Further, in [6], the HepSE_hepatic failure worked out at 0. Besides, the “HepSE_Combined Scores” value in [7] is listed as 0. In addition, the HepSE_hepatic necrosis in data set [8] amounted to 0. For the same molecule, in [9], the HepSE_cirrhosis worked out at 0. This molecule also returned a HepSE_liver fatty in data set [10] of 0. The HepSE_cholelithiasis in [11] was found to be 0. For the same molecule, the HepSE_hepatomegaly in data set [12] is given as 0. For the same molecule, the “HepSE_liver function tests abnormal” value in [13] is given as 0. Further, the HepSE_bilirubinemia in [14] is on record as 0.

Take `CC(C)(C)NCC(O)COc1cccc2c1CCC(=O)N2` (stereo not drawn) [CARTEOLOL]: the “HepSE_elevated liver function tests” value in [1] is listed as 0. Further, the HepSE_jaundice in data set [2] is recorded as 0. Further, the HepSE_hepatitis in [3] stood at 0. The molecule also came in with a HepSE_liver disease in data set [4] of 0. For the same molecule, in data set [5], the HepSE_cholecystitis stood at 0. The molecule also gave a HepSE_hepatic failure in [6] of 0. The “HepSE_Combined Scores” value in data set [7] was found to be 0. The molecule also displayed a HepSE_hepatic necrosis in [8] of 0. The molecule also showed a HepSE_cirrhosis in data set [9] of 0. In [10], this molecule returned a HepSE_liver fatty of 0. In data set [11], this molecule displayed a HepSE_cholelithiasis of 0. In addition, the HepSE_hepatomegaly in data set [12] is reported as 0. Further, the “HepSE_liver function tests abnormal” value in data set [13] is recorded as 0. The molecule further displayed a HepSE_bilirubinemia in data set [14] of 0.

With `O=C1Cc2cc(CCN3CCN(c4nsc5ccccc45)CC3)c(Cl)cc2N1` [ZIPRASIDONE], the “HepSE_elevated liver function tests” value in data set [1] is listed as 0. This molecule had a HepSE_jaundice in data set [2] of 1. In [3], this molecule registered a HepSE_hepatitis of 1. The molecule further showed a HepSE_liver disease in data set [4] of 0. In data set [5], this molecule yielded a HepSE_cholecystitis of 0. For the same molecule, the HepSE_hepatic failure in data set [6] is given as 0. Besides, the “HepSE_Combined Scores” value in data set [7] worked out at 4. In data set [8], this molecule came in with a HepSE_hepatic necrosis of 0. In data set [9], this molecule yielded a HepSE_cirrhosis of 0. Besides, the HepSE_liver fatty in data set [10] is 1. Moreover, in data set [11], the HepSE_cholelithiasis is 0. In data set [12], this molecule displayed a HepSE_hepatomegaly of 1. Also, the “HepSE_liver function tests abnormal” value in [13] amounted to 0. This molecule also yielded a HepSE_bilirubinemia in [14] of 0.

For `N#Cc1ccc(C(c2ccc(C#N)cc2)n2cncn2)cc1` [LETROZOLE], the “HepSE_elevated liver function tests” value in data set [1] is 0. For the same molecule, the HepSE_jaundice in [2] is 0. In addition, the HepSE_hepatitis in [3] is on record as 0. This molecule also came in with a HepSE_liver disease in [4] of 0. In addition, the HepSE_cholecystitis in data set [5] came out at 0. This molecule also yielded a HepSE_hepatic failure in data set [6] of 0. Also, the “HepSE_Combined Scores” value in data set [7] worked out at 0. Further, in data set [8], the HepSE_hepatic necrosis was determined as 0. Moreover, the HepSE_cirrhosis in data set [9] stood at 0. Moreover, the HepSE_liver fatty in data set [10] worked out at 0. The HepSE_cholelithiasis in data set [11] worked out at 0. In data set [12], this molecule displayed a HepSE_hepatomegaly of 0. Further, the “HepSE_liver function tests abnormal” value in data set [13] was found to be 0. This molecule showed a HepSE_bilirubinemia in data set [14] of 0.

Regarding `NC(N)=Nc1nc(CSCCC(N)=NS(N)(=O)=O)cs1` [FAMOTIDINE], in data set [1] (Liver), the “HepSE_elevated liver function tests” value is on record as 0. Moreover, the HepSE_jaundice in data set [2] (Liver) came out at 1. This molecule showed a HepSE_hepatitis in [3] (Liver) of 0. For the same molecule, the HepSE_liver disease in data set [4] (Liver) turned out to be 0. This molecule also yielded a HepSE_cholecystitis in data set [5] (Liver) of 0. For the same molecule, the HepSE_hepatic failure in data set [6] (Liver) is given as 0. In data set [7] (Liver), the “HepSE_Combined Scores” value came to 1. In [8] (Liver), this molecule gave a HepSE_hepatic necrosis of 0. Besides, in [9] (Liver), the HepSE_cirrhosis is given as 0. Moreover, the HepSE_liver fatty in data set [10] (Liver) stood at 0. This molecule showed a HepSE_cholelithiasis in data set [11] (Liver) of 0. Further, in [12] (Liver), the HepSE_hepatomegaly is recorded as 0. In data set [13] (Liver), the “HepSE_liver function tests abnormal” value came out at 0. For the same molecule, the HepSE_bilirubinemia in data set [14] (Liver) came out at 0.

For `CCN[C@H]1CN(CCCOC)S(=O)(=O)c2sc(S(N)(=O)=O)cc21` [BRINZOLAMIDE], the “HepSE_elevated liver function tests” value in data set [1] amounted to 0. The HepSE_jaundice in data set [2] is reported as 0. In data set [3], this molecule registered a HepSE_hepatitis of 0. The HepSE_liver disease in data set [4] worked out at 0. Moreover, the HepSE_cholecystitis in data set [5] is given as 0. For the same molecule, in [6], the HepSE_hepatic failure came to 0. Moreover, the “HepSE_Combined Scores” value in data set [7] is 0. Also, in data set [8], the HepSE_hepatic necrosis turned out to be 0. This molecule also showed a HepSE_cirrhosis in data set [9] of 0. The HepSE_liver fatty in data set [10] came out at 0. Also, the HepSE_cholelithiasis in data set [11] is given as 0. Besides, in [12], the HepSE_hepatomegaly is listed as 0. Also, the “HepSE_liver function tests abnormal” value in data set [13] is 0. Further, the HepSE_bilirubinemia in [14] was found to be 0.
